ChEMBL document CHEMBL1201862, “PubChem BioAssay data set” (2004)
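Briefly, cells in 96-well plates were exposed to five compound concentrations for 48 h, and endpoints were estimated by linear interpolation. GI50 is the concentration that inhibits growth by half.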 Activity calls are given as the source filed them. No stated cut-off is given here; in the data, active = GI50 up to about 1.1 µM and inactive = higher.

Columns and labels:
Assay in all cases: NCI-60 cell line screen, 48 h
[1] = test system: NCI-H23
[2] = test system: HCT-15
[3] = test system: UO-31
[4] = test system: SNB-19
[5] = test system: OVCAR-3
[6] = test system: RXF 393
[7] = test system: MCF7
[8] = test system: MDA-MB-435
[9] = test system: U-251
[10] = test system: SNB-78
[11] = test system: HOP-92
[12] = test system: CCRF-CEM
[13] = test system: OVCAR-4
[14] = test system: SF-295
[15] = test system: SW-620
[16] = test system: M14
[17] = test system: OVCAR-8
[18] = test system: TK-10
[19] = test system: HL-60
[20] = test system: HCC 2998
[21] = test system: SK-MEL-2
[22] = test system: NCI-H226
[23] = test system: MDA-N
[24] = test system: KM12
[25] = test system: Hs-578T
[26] = test system: NCI-H460
[27] = test system: COLO 205
[28] = test system: UACC-62
[29] = test system: PC-3
[30] = test system: SF-539
[31] = test system: SR
[32] = test system: BT-549
[33] = test system: HOP-18
[34] = test system: 786-0
[35] = test system: DLD-1
[36] = test system: OVCAR-5
[37] = test system: IGROV-1
[38] = test system: MDA-MB-231
[39] = test system: M19-MEL
[40] = test system: NCI-H522
[41] = test system: SF-268
[42] = test system: SN12C
[43] = test system: SK-MEL-5
[44] = test system: A549
[45] = test system: A498
[46] = test system: SK-MEL-28
[47] = test system: KM-20L2
[48] = test system: SNB-75
[49] = test system: K562
[50] = test system: XF498
[51] = test system: LOX IMVI
[52] = test system: HT-29
[53] = test system: EKVX
[54] = test system: NCI/ADR-RES
[55] = test system: MOLT-4
[56] = test system: HOP-62
[57] = test system: ACHN
[58] = test system: UACC-257
[59] = test system: CAKI-1
[60] = test system: DMS-273
[61] = test system: RXF 631
[62] = test system: LXFL 529
[63] = test system: DMS-114
[64] = test system: T47D
[65] = test system: Malme-3M
[66] = test system: DU-145
[67] = test system: RPMI-8226
[68] = test system: SK-OV-3
[69] = test system: HCT-116

CCCN(CCCC(NC(C)=O)C(=O)NCc1ccccc1)C(=O)N(CCCl)N=O (centres undefined)
GI50 [1]: 8.75 µM (inactive) | GI50 [2]: 15.5 µM | GI50 [3]: 25.5 µM (inactive) | GI50 [4]: 5.13 µM (inactive) | GI50 [5]: 20.9 µM (inactive) | GI50 [6]: 17.8 µM (inactive) | GI50 [7]: > 100 µM (inactive) | GI50 [8]: > 100 µM (inactive) | GI50 [9]: 3.53 µM (inactive) | GI50 [10]: 15.4 µM (inactive) | GI50 [11]: 17.1 µM (inactive) | GI50 [12]: 6.87 µM (inactive) | GI50 [13]: 37.9 µM (inactive) | GI50 [14]: 2.66 µM (inactive) | GI50 [15]: 7.4 µM (inactive) | GI50 [16]: 14.4 µM (inactive) | GI50 [17]: 10.4 µM (inactive) | GI50 [18]: 37.8 µM (inactive) | GI50 [19]: 3.97 µM (inactive) | GI50 [20]: 4.4 µM (inactive) | GI50 [21]: 26.9 µM (inactive) | GI50 [22]: 17.7 µM (inactive) | GI50 [23]: > 100 µM (inactive) | GI50 [24]: 21.1 µM (inactive) | GI50 [25]: > 100 µM (inactive) | GI50 [26]: 0.27 µM (active) | GI50 [27]: 24.4 µM (inactive) | GI50 [28]: 1.04 µM (active) | GI50 [29]: > 100 µM (inactive) | GI50 [30]: 0.977 µM (active) | GI50 [31]: 0.564 µM (active) | GI50 [32]: 19.2 µM (inactive) | GI50 [33]: 22.5 µM (inactive) | GI50 [34]: 0.638 µM (active) | GI50 [35]: 14.5 µM (inactive) | GI50 [36]: 34.4 µM (inactive) | GI50 [37]: 27 µM (inactive) | GI50 [38]: > 100 µM (inactive) | GI50 [39]: 12.2 µM (inactive) | GI50 [40]: 20.7 µM (inactive) | GI50 [41]: 1.42 µM (inactive) | GI50 [42]: 15.8 µM (inactive) | GI50 [43]: 21.2 µM (inactive) | GI50 [44]: 5.83 µM (inactive) | GI50 [45]: 13.3 µM (inactive) | GI50 [46]: 24.3 µM (inactive) | GI50 [47]: 15.7 µM (inactive) | GI50 [48]: 5.58 µM (inactive) | GI50 [49]: 16.9 µM (inactive) | GI50 [50]: 9.89 µM (inactive) | GI50 [51]: 2.11 µM (inactive) | GI50 [52]: 30.5 µM (inactive) | GI50 [53]: 31.7 µM (inactive) | GI50 [54]: > 100 µM (inactive) | GI50 [55]: 2.6 µM (inactive) | GI50 [56]: 2.73 µM (inactive) | GI50 [57]: 3.09 µM (inactive) | GI50 [58]: 28.8 µM (inactive) | GI50 [59]: 17.6 µM (inactive) | GI50 [60]: 4.52 µM (inactive) | GI50 [61]: 17.4 µM (inactive) | GI50 [62]: 18 µM (inactive) | GI50 [63]: 14.4 µM (inactive) | GI50 [64]: > 100 µM (inactive) | GI50 [65]: 22.4 µM (inactive) | GI50 [66]: > 100 µM (inactive) | GI50 [67]: 28.2 µM (inactive) | GI50 [68]: 25.7 µM (inactive) | GI50 [69]: 22.6 µM (inactive)
